Patent US4791215A, “Derivatives of glutamic acid and aspartic acid” (priority 1984, dated 1988)

What was measured:
[1] = test system: CCK-8 induced contraction of guinea pig gall bladder; test: Anti-CCK activity on gall bladder strips in vitro; details: CCK-8 10 ng/ml
Protocol: ANTI-CCK ACTIVITY ON GUINEA PIG GALL BALDDERS IN VITRO
A longitudinal strip of guinea pig gall bladder was placed in a bath of isolated members in the presence of Krebs at a temperature of 32° C. with continuous oxygenation with an oxygen-CO2 mixture (95-5V/V).
The isometric contractions were detected by means of a force transducer and recorded.
The gall bladder was made to contract with the use of a 10 ng/ml concentration of CCK-8; the antagonistic activity of the compounds of the invention on the contracting effect of the CCK was determined with the use of different concentrations and the ED 50 value, that is the concentration in μg/ml of a compound which could antagonise 50% of the contracting effect of the CCK, was determined.

morphine analgesia = test: Increase in analgesia of morphine, Tail Flick Test (Experiment 1); format: in vivo, rats; details: for percentage variation of latency of pain sensation / M (10-90) ± SE, mean percentage variation of latency: compound 10 mg/kg i.p. + morphine 2 mg/kg; for M (10-90) ± SE, mean percentage variation of latency: mean 10-90 min; for Power ratio with respect to morphine alone: rat, in vivo
Method in brief: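 Tail-flick latency to 75 °C radiant heat, capped at 8 s, measured in male non-fasted rats weighing 150-200 g. Percentage change per animal derived from pre-treatment baseline versus post-drug readings at 10-90 min (10, 20, 30, 45, 60, 90 min).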

Compound	ED50 (concentration antagonising 50% of contracting effect of CCK-8) [1]	percentage variation of latency of pain sensation (morphine analgesia; 10')	percentage variation of latency of pain sensation (morphine analgesia; 20')	percentage variation of latency of pain sensation (morphine analgesia; 30')	percentage variation of latency of pain sensation (morphine analgesia; 45')	percentage variation of latency of pain sensation (morphine analgesia; 60')	percentage variation of latency of pain sensation (morphine analgesia; 90')	M (10-90) ± SE, mean percentage variation of latency (morphine analgesia)	Power ratio with respect to morphine alone (morphine analgesia)
CCCCN(CCCC)C(=O)C(CCC(=O)O)NC(=O)c1cccc(C#N)c1 (stereo not drawn) [Compound C-24]	> 200 mg/L	80.3 ± 13.6%	87.2%	96.9 ± 3.0%	100.0 ± 0.0%	74.0 ± 16.0%	75.3 ± 14.0%	85.6 ± 11.0%	2.87
CCc1ccc(C(=O)NC(CCC(=O)O)C(=O)NC2CCCCC2)cc1 (stereo not drawn) [Compound C-48]	119.1 mg/L	42.1 ± 14%	59.5 ± 8%	50.1 ± 21%	78.4%	43.7 ± 30%	44.9 ± 18%	53.1 ± 14%	1.78
O=C(O)CCC(NC(=O)c1ccc(Cl)c(Cl)c1)C(=O)N1CCCCC1 (stereo not drawn) [Compound C-26]	146.5 mg/L	50.1 ± 17.0%	80.3 ± 20.0%	84.7 ± 11.0%	71.8 ± 15.0%	32.2%	4.9 ± 6.0%	54.0 ± 31.1%	1.81
CCCN(CCC)C(=O)C(CCC(=O)O)NC(=O)c1cc(I)c(I)c(I)c1 (stereo not drawn) [Compound C-19]	> 200 mg/L	3.6 ± 12.0%	42.8 ± 19.0%	58.4 ± 21.0%	66.1%	57.1 ± 18.0%	35.6 ± 20.0%	43.9 ± 22.7%	1.47
CCCCNC(=O)C(CCC(=O)O)NC(=O)c1cccc(C#N)c1 (stereo not drawn) [Compound C-21]	> 200 mg/L	48.6 ± 19.0%	37.4 ± 12.0%	54.8 ± 19.0%	44.6 ± 15.0%	64.0 ± 18.0%	54.9 ± 10.0%	50.7%	1.70
CCCN(CCC)C(=O)C(CCC(=O)O)NC(=O)c1ccc(Cl)c(Cl)c1 (stereo not drawn) [Compound C-5]	4.2 mg/L	34.5 ± 17.4%	21.4 ± 16.0%	59.5 ± 21.1%	84.7%	63.9 ± 18.5%	40.1 ± 23.9%	50.7 ± 23.0%	1.70
O=C(NC(CCC(=O)N1CCCCC1)C(=O)O)c1ccc(Cl)c(Cl)c1 [Compound D-9]	> 200 mg/L	88.5 ± 19.0%	74.0 ± 16.0%	70.9 ± 16.0%	73.0 ± 15.0%	84.5 ± 12.0%	79.9 ± 12.0%	75.1 ± 6.0%	2.52
